In US11866416B2, “Streptococcus mutans glucosyl transferase inhibitors for dental caries therapy” (UAB Research Foundation, priority 2018, dated 2024):
Converted amounts (≈) assume the structure as drawn. Where two headings read alike, the source gives them in different places. Marks after values point to notes of the source that are not given here.

Key:
S. mutans = test: microbe, parasite or virus in culture; assay type: cell-based, Streptococcus mutans; settings: for SI (selectivity index): Table 7, growth IC50 value divided by biofilm IC50 value; for Selectivity: growth versus biofilm
Procedure: Cell viability of S. mutans, S. gordonii, S. sanguinis, Aggregatibacter actinomycetemcomitans and Actinomyces. […] The number of colony-forming units (CFU) per milliliter of each sample treated with selected compounds at different concentrations was enumerated after incubation for 24 h at 37° C. and compared to the values obtained from the DMSO control group. Overnight broth cultures were transferred by 1:50 dilutions into fresh THB medium and were allowed to grow until mid-exponential phase (OD470 nm 0.6) before transfer to 96-well plates containing desired concentration of the compound. After 16 h incubation, bacterial growth was measured at OD470, and normalized to the DMSO control (100%).
Cell viability of S. mutans and commensal S. gordonii and S. sanguinis. Effects of lead small molecules on cell viability were examined. The number of colony-forming units (CFU) per milliliter for each compound at different concentrations was determined after incubation for 24 h at 37° C. and compared to the values obtained from the DMSO control group.
Cell viability of S. mutans and commensal S. gordonii and S. sanguinis. […] DMSO served as a control group and provided a relative comparison for the number of colony-forming units (CFU) per milliliter for each compound at different concentrations was determined after incubation for 24 h at 37° C. The final concentration of DMSO used in the assays was 1%.

S. mutans Gtfs = test: Gtf zymographic assay with SDS-PAGE; assay type: biochemical, Streptococcus mutans; settings: for % Inhibition of GTFs at 10 μM: S. mutans GTF zymogram assay, NI = no inhibition up to 10 μM
Procedure: A well-established zymographic assay was used to determine enzymatic activity of Gtfs (Mattos-Graner et al. (2004) J. Clin. Microbiol. 42, […]). In brief, overnight S. mutans UA159 cultures were diluted 1:100 in fresh 5 mL THB with 50 μL of selective compounds at a series of concentrations. Treated bacteria were grown to OD470 of 1.0, and spun down by centrifugation at 4° C., and culture supernatants were collected and filtered through a 0.22-μm-pore-size filter membrane to remove residual bacterial cells and dialyzed at 4° C. against 0.02 M sodium phosphate buffer (pH 6.8), with 10 μM phenylmethylsulfonyl fluoride (PMSF), followed by a second dialysis against 0.2 mM sodium phosphate containing 10 μM PMSF. After dialysis, 4 mL of samples were concentrated to 40 μL by 100K Amicon Ultra-4 centrifugal filter (Merck Millipore Ltd.). For electrophoresis and zymographic analysis, 10 μL of each concentrated culture supernatant was applied to 8% SDS-PAGE in duplicate. One gel was used for protein staining with Coomassie blue dye, while the other one was subjected to zymographic assay as described (Mattos-Graner et al. (2004) J. Clin. Microbiol. 42, […]). The resultant white opaque glucan bands were visualized against a black background.
Inhibition of the activity of Gtfs determined by zymographic assays. Well established zymographic assay was used to determine enzymatic activity of Gtfs. In brief, overnight S. mutans UA159 cultures were diluted 1:100 in fresh 5 mL THB. Bacteria were grown to OD470 of 1.0, and spun down by centrifugation at 4° C. and culture supernatants were collected and filtered through a 0.22-μm-pore-size filter membrane to remove residual bacterial cells and dialyzed at 4° C. against 0.02 M sodium phosphate buffer (pH 6.8), with 10 μM phenylmethylsulfonyl fluoride (PMSF), followed by a second dialysis against 0.2 mM sodium phosphate containing 10 μM PMSF. After dialysis, 4 mL of samples were concentrated to 40 μL by 100K Amicon Ultra-4 centrifugal filter (Merk Millipore Ltd.). For electrophoresis and zymographic analysis, 10 μL of each concentrated culture supernatant was applied to 8% SDS-PAGE in duplicate. One gel was used for protein staining with Coomassie blue dye, while the other one was subjected to zymographic assay. For zymogram analysis, following electrophoretic separation, gels were washed twice for 15 min each with renaturing buffer containing 2.5% Triton X-100. Gels were then incubated for 18 h at 37° C. with 0.2 M sodium phosphate buffer (pH 6.5) containing 0.2% dextran T70, 5% sucrose, and varying concentrations of the small molecule inhibitors. The reactions were stopped by washing gels with distilled water at 4° C. for 10 min, and digital images of the resultant white opaque glucan bands were visualized against a black background and captured using a digital camera.
Inhibition of the activity of Gtfs determined by zymographic assays. A well-established zymographic assay was used to determine enzymatic activity of Gtfs (Mattos-Graner, R. O., Napimoga, M. H., Fukushima, K., Duncan, M. J., Smith, D. J., J Clin Microbiol, 2004, 42, 4586). In brief, overnight S. mutans UA159 cultures were diluted 1:100 in fresh 5 mL THB with 50 μL of selective compounds at a series of concentrations. Treated bacteria were grown to OD470 of 1.0, and spun down by centrifugation at 4° C., and culture supernatants were collected and filtered through a 0.22-μm-pore-size filter membrane to remove residual bacterial cells and dialyzed at 4° C. against 0.02 M sodium phosphate buffer (pH 6.8), with 10 μM phenylmethylsulfonyl fluoride (PMSF), followed by a second dialysis against 0.2 mM sodium phosphate containing 10 μM PMSF. After dialysis, 4 mL of samples were concentrated to 40 μL by 100K Amicon Ultra-4 centrifugal filter (Merk Millipore Ltd.). For electrophoresis and zymographic analysis, 10 μL of each concentrated culture supernatant was applied to 8% SDS-PAGE in duplicate. […]

S. mutans biofilm = S. mutans biofilm formation and inhibition assay (96-well plates, crystal violet); assay type: cell-based, Streptococcus mutans
Procedure: Biofilm assays using 96-well flat-bottom polystyrene microtiter plates were performed to evaluate S. mutans biofilm formation at various conditions as described (Liu et al. (2011) Antimicrobial Agents and Chemotherapy 55, 2679; Zhang et al. (2015) International Journal of Antimicrobial Agents 46, 174), the disclosures of which are incorporated herein by reference in their entirety). Each assay was replicated three times. Compounds that inhibited biofilm formation at minimum concentration (MBIC) were determined by serial dilutions.
S. mutans biofilm formation and inhibition assays. […] Each assay was replicated three times. Minimum biofilm inhibitory concentration (MBIC) of compounds was determined by serial dilutions.
S. mutans biofilm formation and inhibition assays. Biofilm assays using 96-well flat-bottom polystyrene microtiter plates were performed to evaluate S. mutans biofilm formation at various conditions as described. Each assay was replicated […]. Compounds that inhibited 50% biofilm formation were determined by serial dilutions.
S. mutans biofilm formation and inhibition assays. A well-established protocol to study S. mutans biofilm formation in 96-well flat-bottom polystyrene microtiter plates was used, in triplicate (Mattos-Graner, R. O.; Napimoga, M. H.; Fukushima, K.; Duncan, M. J.; Smith, D. J., Comparative analysis of Gtf isozyme production and diversity in isolates of Streptococcus mutans with different biofilm growth phenotypes. Journal of clinical microbiology 2004, 42 (10), 4586-4592). The stock solutions were made up in 100% DMSO, and final concentration of DMSO used in the assays was 1%. Minimum biofilm inhibitory concentration (MBIC) of compounds was determined by serial dilutions.

[1] = Streptococcus mutans, Table 7, synthesized analogs of compound 9, read-out: Growth IC50
[2] = Streptococcus mutans, Table 7, synthesized analogs of compound 9, read-out: Biofilm IC50
[3] = Streptococcus mutans, Table 1, >500 = no inhibition up to 500 μM, read-out: Biofilm Inhibition IC50
[4] = Streptococcus mutans, Table 5, >500 = no inhibition up to 500 μM, read-out: Biofilm Inhibition IC50
[5] = Streptococcus mutans, Table 2, >300 = no inhibition up to 300 μM, read-out: Growth Inhibition MIC50
[6] = Streptococcus mutans, Table 2, read-out: Biofilm Inhibition IC50
[7] = Streptococcus mutans, Table 4, stilbenes, average of at least 5 measurements, NI = no inhibition, read-out: Growth MIC50
[8] = Streptococcus mutans, Table 4, stilbenes, NI = no inhibition, read-out: Biofilm IC50
[9] = Streptococcus mutans, Table 8, stilbenes, NI = no inhibition, read-out: Biofilm IC50
[10] = Table 6, chalcones, NI = no inhibition

SMILES | IC50 (S. mutans biofilm; [3]) [µM] | MIC50 (S. mutans; [5]) [µM] | IC50 (S. mutans biofilm; [6]) [µM] | other results
O=C(/C=C/c1cc(O)c(O)cc1O)c1ccc(O)cc1 [Compound 18d, (E)-1-(4-hydroxyphenyl)-3-(2,4,5-trihydroxyphenyl)prop-2-en-1-one] |  |  |  | IC50 (S. mutans; [1]): 376 ± 6 µM; SI (selectivity index) (S. mutans): 4.9; Gtf enzyme inhibitory activity, glucan bands in zymogram (S. mutans Gtfs; 50 μM added to cultures): some weak inhibition of the GtfC band; IC50 (S. mutans biofilm; [2]): 76 µM
C(=C\c1ccccc1)/c1ccccc1 [E-stilbene, reference compound] |  |  |  | glucan production in zymogram assay (S. mutans Gtfs; stilbenes, versus DMSO control): no glucan inhibition
O=C(/C=C/c1cc(O)c(O)cc1O)c1ccccc1O [Compound 18c, (E/Z)-1-(2-hydroxyphenyl)-3-(2,4,5-trihydroxyphenyl)prop-2-en-1-one] |  |  |  | selectivity (index / fold) for biofilm over growth (S. mutans): 1.5; IC50 (S. mutans; [1]): 323 ± 36 µM; SI (selectivity index) (S. mutans): 1.5; production of Gtfs, protein level on SDS-PAGE (S. mutans Gtfs; 50 μM added to cultures): largest inhibition; IC50 (S. mutans biofilm; [2]): 224 ± 23 µM
NC(=O)c1ccccc1NC(=O)c1cc2cc(N)ccc2s1 [Compound 3M] | 10.2 |  |  | Growth Inhibition MIC50 (S. mutans; Table 2, >300 = no inhibition up to 300 μM): >300^b μM; % Inhibition of GTFs at 10 μM (S. mutans Gtfs): 42.2%; IC50 (S. mutans biofilm; [4]): 10.2 µM
O=C(Nc1ccccc1C(=O)O)c1cc2cc([N+](=O)[O-])ccc2s1 [Compound 3N] | 89.3 | > 300 | 89.3 | % Inhibition of GTFs at 10 μM (S. mutans Gtfs): 30.1%; IC50 (S. mutans biofilm; [4]): 89.3 µM
NCc1ccccc1NC(=O)c1ccc2ccccc2c1 [AH] | 160 | > 300 | 160 | 
[N-]=[N+]=Nc1ccc(NC(=O)c2cc3cc([N+](=O)[O-])ccc3s2)cc1 [SN-I-287] |  | > 300 | 250 | 
COC(=O)c1ccccc1NC(=O)c1ccc2ccccc2c1 [AZ] | 121 | > 300 | 121 | 
[N-]=[N+]=Nc1ccc(C(=O)Nc2ccccc2C(N)=O)cc1 [SN-I-288] |  | > 300 | 212 | 
C[n+]1ccc(/C=C/c2ccc(O)c(O)c2)c2ccccc21 [Entry 11] |  |  |  | MIC50 (S. mutans; [7]): > 400 µM; Selectivity (S. mutans; Table 4, stilbenes): 4.0; MIC50 (S. mutans; Table 8, stilbenes, average of at least 5 measurements, NI = no inhibition, read-out: Growth MIC50): >400 µM; Selectivity (S. mutans; Table 8, stilbenes): 4.0; IC50 (S. mutans biofilm; [8]): 104 ± 6 µM; IC50 (S. mutans biofilm; [9]): 104 ± 6 µM
NCc1ccccc1NC(=O)c1cc2cc([N+](=O)[O-])ccc2s1 [AM] | 106 | > 300 | 106 | 
COC(=O)c1cccc(NC(=O)c2cnc3ccccc3c2)c1 [AA] | 147 | > 300 | 147 | 
NCc1ccccc1NC(=O)c1cccc2ccccc12 [AN] | 93.3 | > 300 | 93.3 | 
NC(=O)c1ccccc1NC(=O)c1ccc2ncsc2c1 [SN-I-271U] |  | > 300 | 36.1 | 
NC(=O)c1cc(NC(=O)c2cc3cc([N+](=O)[O-])ccc3s2)ccc1[N+](=O)[O-] [SN-II-59] |  | > 300 | 23.4 | 
NCc1ccccc1NC(=O)c1cc2cc([N+](=O)[O-])ccc2[nH]1 [Compound 298C10] |  | > 300 | 98.3 | 
CC(C)(C)OC(=O)NCc1ccccc1NC(=O)c1cnc2ccccc2c1 [AK] | 52.8 | > 300 | 52.8 | 
O=C(/C=C/c1ccc(O)c(O)c1)c1ccc(O)c(O)c1O [Okanin (natural), Okanin] |  |  |  | MIC50 (S. mutans; Streptococcus mutans, Table 3, >300 = no inhibition up to 300 μM, NI = no inhibition up to 400 μM, read-out: Growth Inhibition MIC50): 534 ± 17 µM (≈ 154 µg/mL); IC50 (S. mutans biofilm; Streptococcus mutans, Table 3, read-out: Biofilm Inhibition IC50): 64 ± 7 µM
CC(C)(C)OC(=O)NCc1ccccc1NC(=O)c1ccc2ccccc2n1 [AP] | 67.5 | > 300 | 67.5 | 
O=C(/C=C/c1cccc(O)c1)c1ccccc1O [Compound 2] |  |  |  | Growth inhibition 200 μM (%) (S. mutans; [10]): 86 ± 0.5%; IC50 (S. mutans; Table 6, chalcones, NI = no inhibition, read-out: S. mutans Growth IC50): 32 ± 0.3 µM; Biofilm inhibition 200 μM (%) (S. mutans biofilm; [10]): 84 ± 3%; IC50 (S. mutans biofilm; Table 6, chalcones, read-out: S. mutans Biofilm IC50): 64 ± 4 µM
NC(=O)c1ccccc1OC(=O)c1cc2cc([N+](=O)[O-])ccc2s1 [Compound 3Q] | 50.4 | > 300 | 50.4 | 
NC(=O)c1cc(NC(=O)c2cc3cc([N+](=O)[O-])ccc3s2)cc(C(N)=O)c1 [SN-II-50] |  | > 300 | 4.6 | 
COc1cc(O)cc(/C=C/c2ccccc2)c1 [Entry 6] |  |  |  | MIC50 (S. mutans; [7]): 546 ± 25 µM (≈ 124 µg/mL); Selectivity (S. mutans; Table 4, stilbenes): 1.1; Growth MIC50 (S. mutans; Table 8, stilbenes, average of at least 5 measurements, NI = no inhibition): 546 ± 25 µM; Selectivity (S. mutans; Table 8, stilbenes): 1.1; IC50 (S. mutans biofilm; [8]): 477 ± 51 µM; IC50 (S. mutans biofilm; [9]): 477 ± 51 µM
Oc1cc(O)cc(/C=C/c2ccc(O)c(O)c2)c1 [Compound 8] |  |  |  | Growth inhibition 200 μM (%) (S. mutans; [10]): 82 ± 2%; Biofilm inhibition 200 μM (%) (S. mutans biofilm; [10]): 81 ± 2%; IC50 (S. mutans biofilm; read-out: S. mutans biofilm IC50): 52 µM
